Measurements published in patent EP0853484B1, “NOVEL MU OPIOID RECEPTOR LIGANDS: AGONISTS AND ANTAGONISTS” (priority 1995, dated 1996).
Non-standard residues stand in square brackets, D forms with d. No end group written: not given here.

Assays:
δ receptors = molecular target: T1, δ receptors (Rattus norvegicus, UniProt P33533); experiment: Radioreceptor assay selective for δ receptors ([3H]-naltrindole, rat brain homogenates); type: binding; settings: ratio of δ IC50 to µ IC50
T1 construct: performed using rat brain homogenates as above; tissue Harlan Bioproducts for Science; host or cells: rat brain crude membrane homogenate
Method: Radioreceptor assays selective for δ receptors were performed using rat brain homogenates as above and [^3H]-naltrindole (0.5 nM, specific activity 34.7 Ci/mmol) as radioligand in Tris buffer containing 100 µM phenylmethylsulfonyl fluoride (PMSF), 5 mM MgCl2 and 1 mg/ml bovine serum albumin (BSA), pH 7.4. Samples were incubated for 2.5 hr. Standard curves were prepared using 0.10-3200 nM [^3H]-D-Pen2, Pen5]-enkephalin ([^3H]-DPDPE).

κ receptors = molecular target: T2, κ receptors (Cavia porcellus, UniProt P41144); experiment: Radioreceptor assay selective for κ receptors ([3H]-U69,593, guinea pig brain homogenates); type: binding; settings: ratio of κ IC50 to µ IC50
T2 construct: tissue homogenates prepared from guinea pig brains (cortex and cerebellum); tissue Harlan Bioproducts for Science; host or cells: guinea pig brain (cortex and cerebellum) homogenate
Method: Assays selective for κ receptors were carried out using [^3H]-U69,593 (3 nM, specific activity 62 Ci/mmol) as the radioligand and tissue homogenates prepared from guinea pig brains (cortex and cerebellum) using Tris buffer containing 100 µM PMSF, 5 mM MgCl2 and 1 mg/ml BSA, pH 7.4. Sample tubes were incubated for 2.5 hr.

MU RECEPTOR = experiment: Agonist or antagonist activity by either the adenylyl cyclase assay or the GPI assay (not stated which)

T1 sequence (P33533 whole entry): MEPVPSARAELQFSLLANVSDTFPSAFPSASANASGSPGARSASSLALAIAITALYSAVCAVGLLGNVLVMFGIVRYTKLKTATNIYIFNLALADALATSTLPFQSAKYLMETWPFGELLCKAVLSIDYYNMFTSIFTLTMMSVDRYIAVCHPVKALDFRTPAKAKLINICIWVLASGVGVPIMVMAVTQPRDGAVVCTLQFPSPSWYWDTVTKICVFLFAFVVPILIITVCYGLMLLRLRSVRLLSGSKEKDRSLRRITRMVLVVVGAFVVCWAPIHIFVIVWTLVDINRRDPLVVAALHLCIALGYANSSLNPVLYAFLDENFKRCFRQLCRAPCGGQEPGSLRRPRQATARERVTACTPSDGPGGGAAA
T2 sequence (P41144 whole entry): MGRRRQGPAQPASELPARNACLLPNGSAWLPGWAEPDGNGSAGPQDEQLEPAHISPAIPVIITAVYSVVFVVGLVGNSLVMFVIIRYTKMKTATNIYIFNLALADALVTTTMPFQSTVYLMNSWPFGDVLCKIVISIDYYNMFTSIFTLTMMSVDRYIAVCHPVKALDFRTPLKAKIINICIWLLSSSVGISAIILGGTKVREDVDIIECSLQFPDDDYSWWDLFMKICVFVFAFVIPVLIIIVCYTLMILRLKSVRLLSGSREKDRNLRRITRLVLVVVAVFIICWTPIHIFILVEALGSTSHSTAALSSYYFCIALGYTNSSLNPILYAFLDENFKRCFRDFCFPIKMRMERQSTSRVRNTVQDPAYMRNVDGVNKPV

In the case of “[D-Ala^2,MePhe^4,Gly-ol^5]enkephalin [DAMGO]”, the δ/µ (δ receptors) is reported as 253 and the κ/µ (κ receptors) is reported as 844.

“[dI][dM][dT][dW]G[dP]-NH2 [SEQ ID NO. 130]” was tested, and the “AGONIST OR ANTAGONIST” value (MU RECEPTOR) was “Agonist”.
